Results reported in ChEMBL document CHEMBL5260813, “An overview on the recent developments of 1,2,4-triazine derivatives as anticancer compounds” (Eur J Med Chem, 2017).
In brackets after ≈: the same amount, converted by molar mass. Each block holds one compound with its values, some of them ahead of it.

Legend:
[1] = target: T1, Tyrosine-protein kinase JAK3 (Homo sapiens, UniProt P52333); assay: Inhibition of JAK3 (unknown origin)
T1 sequence (P52333 whole entry): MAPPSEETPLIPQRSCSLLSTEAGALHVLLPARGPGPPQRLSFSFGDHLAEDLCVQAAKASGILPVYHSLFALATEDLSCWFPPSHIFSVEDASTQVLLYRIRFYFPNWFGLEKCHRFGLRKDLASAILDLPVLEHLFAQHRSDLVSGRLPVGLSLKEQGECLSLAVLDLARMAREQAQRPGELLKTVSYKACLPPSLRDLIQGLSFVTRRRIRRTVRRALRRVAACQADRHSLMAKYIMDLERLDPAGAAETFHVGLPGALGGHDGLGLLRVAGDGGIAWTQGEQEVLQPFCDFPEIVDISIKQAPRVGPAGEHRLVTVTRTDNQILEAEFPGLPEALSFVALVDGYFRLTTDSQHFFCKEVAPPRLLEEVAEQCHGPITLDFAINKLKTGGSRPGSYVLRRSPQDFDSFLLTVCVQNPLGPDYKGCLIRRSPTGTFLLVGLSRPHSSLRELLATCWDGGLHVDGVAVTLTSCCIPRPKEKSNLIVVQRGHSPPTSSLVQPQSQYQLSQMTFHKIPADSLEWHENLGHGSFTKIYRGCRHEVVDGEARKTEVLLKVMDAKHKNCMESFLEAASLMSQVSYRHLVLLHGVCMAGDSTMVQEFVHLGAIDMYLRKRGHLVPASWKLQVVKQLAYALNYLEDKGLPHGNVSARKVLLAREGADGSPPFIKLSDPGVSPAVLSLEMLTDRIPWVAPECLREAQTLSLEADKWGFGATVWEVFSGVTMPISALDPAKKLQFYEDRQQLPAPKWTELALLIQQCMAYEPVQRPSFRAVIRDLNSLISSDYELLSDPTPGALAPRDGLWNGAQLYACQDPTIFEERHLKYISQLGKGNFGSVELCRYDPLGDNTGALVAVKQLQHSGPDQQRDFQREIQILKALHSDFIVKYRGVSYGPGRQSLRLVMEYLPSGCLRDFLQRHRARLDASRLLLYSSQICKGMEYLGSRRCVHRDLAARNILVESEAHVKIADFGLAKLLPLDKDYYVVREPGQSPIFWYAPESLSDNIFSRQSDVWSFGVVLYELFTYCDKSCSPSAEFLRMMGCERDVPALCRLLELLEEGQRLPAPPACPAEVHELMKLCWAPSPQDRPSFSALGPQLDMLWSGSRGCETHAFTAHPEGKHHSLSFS

[2] = target: Tyrosine-protein kinase JAK2 (Homo sapiens, UniProt O60674); assay: Inhibition of JAK2 (unknown origin)
[3] = test system: HT-29; assay: Antiproliferative activity against human HT-29 cells assessed as inhibition of cell growth by SRB assay; format: functional, cell-based
[4] = test system: HT-29; assay: Potency index, ratio of tirapazamine IC50 to compound IC50 for antiproliferative activity against human HT-29 cells; format: functional
[5] = target: Cyclin-dependent kinase 2/cyclin E (Homo sapiens, UniProt P24941); assay: Inhibition of CDK2/cyclin E (unknown origin); format: protein-complex assay
[6] = test system: MCF7; assay: Antiproliferative activity against human MCF7 cells assessed as inhibition of cell growth; format: functional, cell-based
[7] = test system: HCT-116; assay: Antiproliferative activity against human HCT-116 cells assessed as inhibition of cell growth; format: functional, cell-based
[8] = target: Cyclin-dependent kinase 2/cyclin E1 (Homo sapiens, UniProt P24941); assay: Inhibition of CDK2/cyclin E1 (unknown origin) expressed in Sf9 cells
[9] = target: T2, Tyrosine-protein kinase SYK (Homo sapiens, UniProt P43405); assay: Inhibition of human SYK using 5-Fluo-Ahx-GAPDYENLQELNKK-Amid as substrate in presence of ATP by microfluidic mobility shift assay
[10] = target: T2, Tyrosine-protein kinase SYK; assay: Inhibition of SYK in human Ramos cells assessed as reduction in anti IgM-induced phosphorylation of BLNK by flow cytometry assay; format: cell-based

Sequence of Tyrosine-protein kinase JAK2 (O60674 whole entry): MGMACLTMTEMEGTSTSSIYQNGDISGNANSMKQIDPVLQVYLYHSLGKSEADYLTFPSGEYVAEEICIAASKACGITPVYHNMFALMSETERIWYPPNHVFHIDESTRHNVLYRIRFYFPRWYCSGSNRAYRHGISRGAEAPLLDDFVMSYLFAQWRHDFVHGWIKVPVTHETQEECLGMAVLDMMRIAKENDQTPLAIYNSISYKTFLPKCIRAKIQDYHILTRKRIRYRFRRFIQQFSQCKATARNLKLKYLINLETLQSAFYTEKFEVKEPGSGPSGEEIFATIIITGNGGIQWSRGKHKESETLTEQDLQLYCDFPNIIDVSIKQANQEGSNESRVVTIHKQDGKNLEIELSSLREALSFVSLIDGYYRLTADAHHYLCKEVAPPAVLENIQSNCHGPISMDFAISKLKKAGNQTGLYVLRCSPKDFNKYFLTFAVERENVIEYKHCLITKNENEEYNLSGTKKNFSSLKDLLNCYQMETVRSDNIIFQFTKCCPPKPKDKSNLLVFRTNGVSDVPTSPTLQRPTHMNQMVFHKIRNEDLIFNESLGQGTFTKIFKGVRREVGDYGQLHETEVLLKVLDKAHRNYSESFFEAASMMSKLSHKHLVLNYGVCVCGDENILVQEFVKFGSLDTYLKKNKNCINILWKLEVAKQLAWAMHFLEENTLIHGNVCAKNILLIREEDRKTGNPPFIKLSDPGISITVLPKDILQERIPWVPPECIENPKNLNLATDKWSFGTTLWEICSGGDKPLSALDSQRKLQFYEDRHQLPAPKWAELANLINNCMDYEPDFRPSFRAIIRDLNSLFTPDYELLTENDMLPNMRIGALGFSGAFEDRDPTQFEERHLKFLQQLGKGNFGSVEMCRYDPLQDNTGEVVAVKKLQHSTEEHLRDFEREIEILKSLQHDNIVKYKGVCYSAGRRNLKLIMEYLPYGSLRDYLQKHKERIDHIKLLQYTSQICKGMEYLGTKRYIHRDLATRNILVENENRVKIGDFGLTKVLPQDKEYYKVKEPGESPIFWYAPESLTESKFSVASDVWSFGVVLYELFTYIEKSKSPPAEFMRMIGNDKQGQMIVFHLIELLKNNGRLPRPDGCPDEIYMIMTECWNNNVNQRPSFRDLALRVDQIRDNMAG

Structure (SMILES): CC(C)(C)CNC(=O)C(C)(C)Nc1cnnc(-c2c[nH]c3ncc(C#N)cc23)n1
IC50 [1]: ≤ 10 nM
IC50 [2]: ≤ 10 nM

Structure (SMILES): CCc1nc2ccccc2[n+]([O-])n1
IC50 [3]: > 3000 nM
Ratio IC50 [4]: 1.3

Structure (SMILES): CN(C)CCNc1nc2ccccc2[n+]([O-])n1
IC50 [3]: > 1000 nM
Ratio IC50 [4]: 3.9

Structure (SMILES): CC(C)C(Nc1cnnc(-c2c[nH]c3ncc(C(N)=O)cc23)n1)C(=O)NCC(C)(C)C (stereo not given)
IC50 [1]: ≤ 10 nM
IC50 [2]: ≤ 10 nM

Structure (SMILES): CC(Nc1cnnc(-c2c[nH]c3ncc(C#N)cc23)n1)C(=O)NCC(C)(C)C (stereo not given)
IC50 [1]: ≤ 10 nM
IC50 [2]: ≤ 10 nM

Structure (SMILES): COc1cc(Cc2nc(-c3ccc(Cl)cc3)nn3c(=S)[nH]nc23)cc(OC)c1OC
IC50 [6]: 0.74 µg/mL (≈ 1.67 µM)
IC50 [7]: 0.74 µg/mL

Structure (SMILES): CN(C)CCCNc1nc2ccccc2[n+]([O-])n1
IC50 [3]: 830 nM
Ratio IC50 [4]: 1.2

Structure (SMILES): COc1nc2ccccc2[n+]([O-])n1
IC50 [3]: > 300 nM
Ratio IC50 [4]: 3.3

Structure (SMILES): CNCCNc1nc2ccccc2[n+]([O-])n1
IC50 [3]: 2300 nM
Ratio IC50 [4]: 6.11

Structure (SMILES): CC(C)(C)CNC(=O)C(C)(C)Nc1cnnc(-c2c[nH]c3ncc(C(N)=O)cc23)n1
IC50 [1]: ≤ 10 nM
IC50 [2]: ≤ 10 nM

Structure (SMILES): [O-][n+]1nc(CCO)nc2ccccc21
IC50 [3]: > 3000 nM
Ratio IC50 [4]: 1.2

Structure (SMILES): Oc1cccc(-n2nc(-c3cc(O)c(O)c(O)c3)c3nc(-c4ccccc4)nnc32)c1
IC50 [8]: 5200 nM

Structure (SMILES): Oc1ccccc1-n1nc(-c2cc(O)c(O)c(O)c2)c2nc(-c3ccccc3)nnc21
IC50 [8]: 15100 nM

Structure (SMILES): COc1cc(-c2csc3nnc(-c4ccc(Cl)cc4)nc23)cc(OC)c1OC
IC50 [6]: 0.74 µg/mL (≈ 1.79 µM)
IC50 [7]: 0.74 µg/mL

Structure (SMILES): COc1cc(-c2nnc3c(n2)c(-c2cc(O)c(O)c(O)c2)nn3-c2cc(OC)c(OC)c(OC)c2)cc(OC)c1OC
IC50 [8]: 4500 nM

Structure (SMILES): CN1CCN(CC(=O)Nc2cc(C(=O)Nc3ncc(-c4ccccc4)nn3)ccc2OC(F)(F)F)CC1
IC50 [7]: 16 nM

Structure (SMILES): CC(Nc1cnnc(-c2c[nH]c3ncc(C(N)=O)cc23)n1)C(=O)NCC(C)(C)C (stereo not given)
IC50 [1]: ≤ 10 nM
IC50 [2]: ≤ 10 nM

Now from value to compound:

IC50 [5]: 9750 nM
Structure (SMILES): Cc1n[nH]c(=S)n(-c2nnc(-c3ccc(F)cc3)c(-c3ccc(F)cc3)n2)c1=O

IC50 [5]: 3800 nM
Structure (SMILES): Nc1ccc(F)cc1C1=NNC(Nc2ccc(F)cc2)NC1=O (stereo not given)

IC50 [5]: 5000 nM
Structure (SMILES): CNc1ccc(F)cc1C1=NNC(SC)NC1=O (stereo not given)

IC50 [5]: 3800 nM
Structure (SMILES): CSC1NN=C(c2cc(F)ccc2NC(=O)c2ccc(F)cc2)C(=O)N1 (stereo not given)

IC50 [5]: 3800 nM
Structure (SMILES): O=C1NC(SSC2NN=C(c3cc(F)ccc3NC(=O)c3ccc(F)cc3)C(=O)N2)NN=C1c1cc(F)ccc1NC(=O)c1ccc(F)cc1 (stereo not given)

IC50 [5]: 3800 nM
Structure (SMILES): Nc1ccc(F)cc1C1=NNC(S)NC1=O (stereo not given)

IC50 [5]: 11200 nM
Structure (SMILES): NNC(=S)Nc1nnc(-c2ccc(F)cc2)c(-c2ccc(F)cc2)n1

IC50 [5]: 9990 nM
Structure (SMILES): Fc1ccc(-c2nnc(-n3c(=S)[nH][nH]c3=S)nc2-c2ccc(F)cc2)cc1

IC50 [1]: ≤ 10 nM
IC50 [2]: ≤ 10 nM
Structure (SMILES): CC(C)C(Nc1cnnc(-c2c[nH]c3ncc(C#N)cc23)n1)C(=O)NCC(C)(C)C (stereo not given)

IC50 [5]: 10900 nM
Structure (SMILES): Fc1ccc(-c2nnc(-n3cn[nH]c3=S)nc2-c2ccc(F)cc2)cc1

IC50 [1]: ≤ 10 nM
IC50 [2]: ≤ 10 nM
Structure (SMILES): COc1cnc2[nH]cc(-c3nncc(NC(C(=O)NCC(C)(C)C)C(C)C)n3)c2c1 (stereo not given)

IC50 [9]: 0.8 nM
IC50 [10]: 14 nM
Structure (SMILES): N#Cc1c[nH]c2c(Nc3nc(N[C@@H]4CCCCC4N)nnc3C(N)=O)cccc12 (single isomer, unassigned)
